The test system of the assay is Trichomonas vaginalis G3 trophozoites. Particulars: for T.vaginalis_Absorbance_Rep1: replicate 1, raw absorbance; for T.vaginalis_Absorbance_Rep2: replicate 2, raw absorbance; for T. vaginalis HTS result in words: 384-well, 25 μL, 10,000 cells/mL, 48 h, biological duplicates, hit = >50% inhibition.
[1] abbreviates: HTS, parasite screen at 1 µg/mL, replicate 1.
The mark [2] stands for this setting: HTS, parasite screen at 1 µg/mL.
Where [3] appears, read: HTS, parasite screen at 1 µg/mL, replicate 2.
The mark [4] stands for this setting: HTS replicate 1, parasite screen 1 µg/mL.
Setting [5] is: HTS replicate 2, parasite screen 1 µg/mL.

Here are results for 34 compounds from publication PMC7897990, “TriTOX: A novel Trichomonas vaginalis assay platform for high-throughput screening of compound libraries” (International Journal for Parasitology: Drugs and Drug …, 2021).

Read-outs that look alike come from different tables or passages of the source. Positions of bridges follow the written chain, without caps; N, C: chain ends. Non-standard residues stand in square brackets, D forms with d. Residues, ends and D or L forms follow the SMILES beside them. *: point of attachment. d(aThr) = C[C@@H](O)[C@@H](N)C(=O)O; X1 = CCCCCCCCCCCC(O)CC(=O)*; GABA = NCCCC(=O)O

With `C=C1CC[C@H]2C(C)(C)CCC[C@]2(C)[C@H]1C[C@@]12C[C@H]3C(=O)N4CCC=C4C(=O)N3[C@@H]1Nc1ccccc12` [Drimentine B], the T.vaginalis_%inb_Rep1 under setting [1] is 15.40%. Under setting [2], this compound returned a T.vaginalis_Absorbance_Rep1 of 0.995 and a T.vaginalis_Absorbance_Rep2 of 0.831. In addition, under setting [3], the T.vaginalis_%inb_Rep2 came to 15.26%.
For `CO[C@H]1C[C@H](O[C@H]2[C@H](C)O[C@@H](O[C@@H]3/C(C)=C/C[C@@H]4C[C@@H](C[C@]5(C=C[C@H](C)[C@@H](C6CCCCC6)O5)O4)OC(=O)[C@H]4C=C(C)[C@@H](O)[C@H]5OC/C(=C\C=C\[C@@H]3C)[C@@]45O)C[C@@H]2OC)O[C@@H](C)[C@@H]1O` [Doramectin, epi-], in that order: 16.13%, 1.02, 0.877 and 15.52%.
In the case of `CCCCCCCCCCCC(O)CC(=O)N[C@@H](CC(C)C)C(=O)N[C@H](CCC(=O)O)C(=O)N[C@H]1C(=O)N[C@H](C(C)C)C(=O)N[C@@H](CC(C)C)C(=O)N[C@H](CO)C(=O)N[C@@H](CC(C)C)C(=O)N[C@@H](CC(C)C)C(=O)N[C@H](CO)C(=O)N[C@@H](C(C)C)C(=O)O[C@@H]1C` (some centres unmarked) [Orfamide B] (X1-L[dE][d(aThr)][dV]L[dS]LL[dS]V; ester 3-C), the T.vaginalis_%inb_Rep1 under setting [4] worked out at 16.23%. In addition, under setting [5], the T.vaginalis_%inb_Rep2 worked out at 12.19%.
The matching figures for `Nc1cc2nc3ccccc3oc-2cc1=O` [Questiomycin A]: 16.02% and 12.32%.
Regarding `C=C[C@]1(C)C[C@@H](O)[C@]2(C)[C@H](C)CC[C@]3(CCC(=O)[C@H]32)[C@@H](C)[C@@H]1O` [Mutilin], under setting [4], the T.vaginalis_%inb_Rep1 amounted to 12.02%. In addition, the T.vaginalis_%inb_Rep2 under setting [5] stood at 13.21%.
Consider `CC(C)C[C@@H]1NC(=O)[C@@H](C(C)C)NC(=O)[C@@H](C)NC(=O)CCCNC(=O)[C@@H](Cc2c[nH]c3ccccc23)NC(=O)[C@@H](C)NC(=O)[C@@H](C(C)C)NC1=O` [Unguisin B] (cyclo([GABA][dA][dV]L[dV][dA][dW])), for which the T.vaginalis_%inb_Rep1 under setting [1] is on record as 10.17%. Further, the T.vaginalis_%inb_Rep2 under setting [3] came to 14.69%.
For `COC1=C(OC)C(=O)C(C)C(C)C1=O` (centres unmarked) [Gliorosein], under setting [1], the T.vaginalis_%inb_Rep1 worked out at 13.24%. For the same compound, under setting [2], the T.vaginalis_Absorbance_Rep1 is 0.963 and the T.vaginalis_Absorbance_Rep2 turned out to be 0.874. The T.vaginalis_%inb_Rep2 under setting [3] was found to be 15.33%.
As for `CC(C)=CC(=O)CC(C)c1ccc(C)cc1` (centres unmarked) [Turmerone], under setting [1], the T.vaginalis_%inb_Rep1 came out at 9.33%. Also, the T.vaginalis_%inb_Rep2 under setting [3] worked out at 14.44%.
The compound `CCc1c(O)c(C)c(C(C)CC)oc1=O` (centres unmarked) [Germicidin A] displayed a T.vaginalis_%inb_Rep1 under setting [1] of 11.41%. Under setting [2], this compound yielded a T.vaginalis_Absorbance_Rep1 of 0.927 and a T.vaginalis_Absorbance_Rep2 of 0.825. Under setting [3], this compound yielded a T.vaginalis_%inb_Rep2 of 12.19%.
Take `CCC(O)C(C)(O)C1OC(=O)C(C)C(OC2CC(C)(OC)C(O)C(C)O2)C(C)C(OC2OC(C)CC(N(C)C)C2O)C2(C)CC(C)=C(O2)C1C` (centres unmarked) [Pseudoerythromycin A enol ether]: the T.vaginalis_%inb_Rep1 under setting [4] came to 13.84%. Besides, the T.vaginalis_%inb_Rep2 under setting [5] came to 5.58%.
On to `CC(=O)c1c(O)c(C(C)=O)c(O)c(C(C)=O)c1O` [Triacetylphloroglucinol], for which, under setting [1], the T.vaginalis_%inb_Rep1 was 10.38%. Further, the T.vaginalis_%inb_Rep2 under setting [3] worked out at 10.12%.
In the case of `COC(=O)C1(O)CC2OC1(C)n1c3ccccc3c3c4c(c5c6ccccc6n2c5c31)C(=O)NC4` (centres unmarked) [K252A, reference compound], the “T. vaginalis HTS result in words” value is given as “active analogues”.
Compound `CCC/C=C/C=C/[C@@H]1C[C@@H](O)[C@@H](O)C(=O)[C@H]1CO` [Palitantin] yielded a T.vaginalis_%inb_Rep1 under setting [4] of 13.59%. Also, under setting [5], the T.vaginalis_%inb_Rep2 is 14.56%.
`CC1(C)CCC[C@]2(C)[C@@H](CO)C(CO)=CC[C@@H]12` [Drimendiol] came in with a T.vaginalis_%inb_Rep1 under setting [1] of 13.84%. Further, under setting [2], the T.vaginalis_Absorbance_Rep1 is given as 0.966 and the T.vaginalis_Absorbance_Rep2 is on record as 0.781. In addition, under setting [3], the T.vaginalis_%inb_Rep2 came to 11.64%.
For `CC[C@]1(C)C[C@@H](OC(=O)CO)[C@]2(C)[C@H](C)CC[C@]3(CCC(=O)[C@H]32)[C@@H](C)[C@@H]1O` [Dihydropleuromutilin], in that order: 14.27%, 0.974, 0.803 and 13.23%.
As to `COc1ccc(C[C@H]2NC[C@H](O)[C@H]2OC(C)=O)cc1` [anisomycin, reference compound], the “T. vaginalis HTS result in words” value is “supported the anti-trichomonal activity”.
Turning to `CO[C@H]1/C=C\C=C(/C)C(=O)NC2=CC(=O)C(NCCN(C)C)=C(C[C@@H](C)C[C@H](OC)[C@H](O)[C@@H](C)/C=C(\C)[C@@H]1OC(N)=O)C2=O` [17-DAAG, 17-dimethylaminoethylamino-17-demethoxygeldanamycin, reference compound], the “T. vaginalis HTS result in words” value is recorded as “partial hits”.
In the case of `CCC/C=C/C=C/C1C[C@@H](O)[C@@H](O)C(=O)[C@H]1C=O` (some centres unmarked) [Frequentin], the T.vaginalis_%inb_Rep1 under setting [1] is reported as 13.62%. Under setting [2], this compound displayed a T.vaginalis_Absorbance_Rep1 of 0.962 and a T.vaginalis_Absorbance_Rep2 of 0.727. Under setting [3], this compound registered a T.vaginalis_%inb_Rep2 of 7.74%.
`CO[C@H]1C[C@H](O[C@@H]2/C(C)=C/C[C@@H]3C[C@@H](C[C@]4(C=C[C@H](C)[C@@H](C5CCCCC5)O4)O3)OC(=O)[C@@H]3C=C(C)[C@@H](O)[C@H]4OC/C(=C\C=C\[C@@H]2C)[C@]43O)O[C@@H](C)[C@@H]1O` [Doramectin monosaccharide] displayed a T.vaginalis_%inb_Rep1 under setting [1] of 13.89%. Under setting [2], this compound had a T.vaginalis_Absorbance_Rep1 of 0.967 and a T.vaginalis_Absorbance_Rep2 of 0.797. This compound also had a T.vaginalis_%inb_Rep2 under setting [3] of 12.80%.
The compound `C=C(NC(=O)C(=C)NC(=O)c1ccc2c(n1)-c1coc(n1)C(=C)NC(=O)C(=C)NC(=O)c1nc(oc1C)C(=C)NC(=O)C(C(C)(C)O)NC(=O)C(=C)NC(=O)c1coc(n1)/C(=C/C)NC(=O)[C@H]([C@@H](C)O)NC(=O)c1csc-2n1)C(N)=O` (some centres unmarked) [Geninthiocin] came in with a T.vaginalis_%inb_Rep1 under setting [1] of 14.25%. Under setting [2], this compound came in with a T.vaginalis_Absorbance_Rep1 of 0.983 and a T.vaginalis_Absorbance_Rep2 of 0.83. For the same compound, under setting [3], the T.vaginalis_%inb_Rep2 was determined as 12.51%.
As to `COc1ccc2nc(C(=O)N[C@@H]3COC(=O)[C@H](C(C)(C)O)N(C)C(=O)CN(C)C(=O)CNC(=O)[C@@H]4[C@@H](OC(C)=O)CC=NN4C(=O)[C@H](NC(=O)c4nc5ccc(OC)cc5cc4O)COC(=O)[C@H](C(C)(C)O)N(C)C(=O)CN(C)C(=O)CNC(=O)[C@@H]4[C@@H](OC(C)=O)CC=NN4C3=O)c(O)cc2c1` [luzopeptin A, reference compound], the “T. vaginalis HTS result in words” value is listed as “partial hits”.
Consider `CC1=CC[C@H]2C(C)(C)CCC[C@]2(C)[C@H]1CO` [Drimenol], for which, under setting [1], the T.vaginalis_%inb_Rep1 is recorded as 14.49%. Besides, under setting [2], the T.vaginalis_Absorbance_Rep1 was determined as 0.978 and the T.vaginalis_Absorbance_Rep2 is given as 0.774. The same compound registered a T.vaginalis_%inb_Rep2 under setting [3] of 11.14%.
For the compound `COc1c2c(cc3c1c(=O)c1ccccc1n3C)OCO2` [Evoxanthine], the T.vaginalis_%inb_Rep1 under setting [1] turned out to be 15.29%. Besides, under setting [2], the T.vaginalis_Absorbance_Rep1 came out at 0.993 and the T.vaginalis_Absorbance_Rep2 was determined as 0.695. This compound registered a T.vaginalis_%inb_Rep2 under setting [3] of 5.42%.
Under setting [4], `CCCC[C@H](O)[C@@H]1CC(OC)=CC(=O)O1` [Pestalotin] returned a T.vaginalis_%inb_Rep1 of 11.05%. Moreover, the T.vaginalis_%inb_Rep2 under setting [5] is reported as 11.16%.
Compound `CC(=O)c1c(O)cc(O)c(C(C)=O)c1O` [Diacetylphloroglucinol] returned a T.vaginalis_%inb_Rep1 under setting [1] of 9.32%. Also, under setting [2], the T.vaginalis_Absorbance_Rep1 is 0.882 and the T.vaginalis_Absorbance_Rep2 was 0.768. Further, under setting [3], the T.vaginalis_%inb_Rep2 came out at 10.70%.
`COC1C(OC(N)=O)C(O)C(Oc2ccc3c(O)c(NC(=O)c4ccc(O)c(CCC(C)C)c4)c(=O)oc3c2C)OC1(C)C` (centres unmarked) [Dihydronovobiocin]: the T.vaginalis_%inb_Rep1 under setting [1] stood at 2.80%. Also, under setting [2], the T.vaginalis_Absorbance_Rep1 is listed as 0.761 and the T.vaginalis_Absorbance_Rep2 is 0.687. The compound also showed a T.vaginalis_%inb_Rep2 under setting [3] of 4.84%.
For `CC(=O)Nc1c2sscc-2n(C)c1=O` [thiolutin, reference compound], the “T. vaginalis HTS result in words” value was “supported the anti-trichomonal activity”.
As to `O=c1[nH]c2ccccc2c(-c2cccc(O)c2)c1O` [Viridicatol], the T.vaginalis_%inb_Rep1 under setting [1] is reported as 6.71%. For the same compound, the T.vaginalis_%inb_Rep2 under setting [3] came to 14.99%.
Compound `COCC(=O)N[C@@H](C(=O)N1NCCC[C@H]1C(=O)N[C@@H](Cc1ccccc1)[C@@H](O)[C@H](C)C(=O)N[C@H]1CCN(C(N)=O)C1=O)[C@H](O)C(C)C` [Padanamide A] showed a T.vaginalis_%inb_Rep1 under setting [4] of 15.72%. Besides, under setting [5], the T.vaginalis_%inb_Rep2 was found to be 10.52%.
For the compound `COC1=C(OC)C(=O)C(C)=CC1=O` [Fumigatin methylether], the T.vaginalis_%inb_Rep1 under setting [1] is 13.18%. Moreover, under setting [2], the T.vaginalis_Absorbance_Rep1 is recorded as 0.962 and the T.vaginalis_Absorbance_Rep2 was 0.785. This compound gave a T.vaginalis_%inb_Rep2 under setting [3] of 9.62%.
For the compound `CC(=O)OCc1c(O)c2c(c3c1OC(=O)c1c(C)cc(O)c(C=O)c1O3)C(O)OC2=O` (centres unmarked) [Galbinic acid], the T.vaginalis_%inb_Rep1 under setting [1] is recorded as 15.37%. Under setting [2], this compound gave a T.vaginalis_Absorbance_Rep1 of 1.005 and a T.vaginalis_Absorbance_Rep2 of 0.836. In addition, under setting [3], the T.vaginalis_%inb_Rep2 is on record as 12.89%.
`C/C=C(/C)c1cc(O)c(C)c2c1Oc1c(C)c(O)cc(/C(C)=C\C)c1C(=O)O2` [Folipastatin] had a T.vaginalis_%inb_Rep1 under setting [1] of 12.58%. Besides, under setting [2], the T.vaginalis_Absorbance_Rep1 is given as 0.95 and the T.vaginalis_Absorbance_Rep2 was found to be 0.855. The compound also displayed a T.vaginalis_%inb_Rep2 under setting [3] of 14.11%.
The compound `COc1ccc(/C=C/C(=O)O)cc1O` [BIA-I1729] gave a T.vaginalis_%inb_Rep1 (replicate 1, parasite screen at 1 µg/mL) of 11.16%. Besides, under “replicate 2, parasite screen at 1 µg/mL”, the T.vaginalis_%inb_Rep2 was found to be 13.98%.
`Cc1cc(=O)n2c3c(c4c(cc13)c(CO)cc(=O)n4C)OC2` [Nybomycin]: the T.vaginalis_%inb_Rep1 under setting [4] worked out at 11.05%. Moreover, the T.vaginalis_%inb_Rep2 under setting [5] was determined as 10.26%.
